From US20180201592A1, “2-AMINO-1,3,4-THIADIAZINE AND 2-AMINO-1,3,4-OXADIAZINE BASED ANTIFUNGAL AGENTS” (F2G Limited, priority 2015, published 2018)
≈ marks a conversion by molar mass, not a printed value. Like-named read-outs stand apart in the source and are kept apart here.

Columns and labels:
A. terreus 49 = assay: Minimum inhibitory concentration, YAG medium; assay type: cell-based, Aspergillus terreus; conditions: banded MIC grade; for MIC: Aspergillus terreus, 49, YAG media
How it was run: (§1)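 MIC in mg/L, from OD485 growth read-out after 24 hrs at 35° C in YAG medium with Aspergillus spores. Doubling dilutions in water made from a 5 mg/mL DMSO stock.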

Aspergillus fumigatus = assay: Minimum inhibitory concentration, YAG medium; assay type: cell-based; conditions: banded MIC grade; for MIC: Aspergillus fumigatus, YAG media
How it was run: (§2)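 Broth microdilution in YAG medium; inoculum 1-2×10^4 cfu/mL; compound 50-0.05 mg/L in doubling steps, from DMSO stock. 24 h, 35° C. Read OD 485 nm; MIC = lowest conc. inhibiting growth >70% vs no-drug control, in mg/L.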

Aspergillus terreus = assay: Minimum inhibitory concentration, YAG medium; assay type: cell-based; conditions: banded MIC grade; for MIC: Aspergillus terreus, YAG media
How it was run: as §1

Aspergillus flavus = assay: Minimum inhibitory concentration, YAG medium; assay type: cell-based; conditions: banded MIC grade; for MIC: Aspergillus flavus, YAG media
How it was run: as §1

Aspergillus niger = assay: Minimum inhibitory concentration, YAG medium; assay type: cell-based; conditions: banded MIC grade; for MIC: Aspergillus niger, YAG media
How it was run: as §1

A. fumigatus 210 = assay: Minimum inhibitory concentration, YAG medium; assay type: cell-based, Aspergillus fumigatus; conditions: banded MIC grade; for MIC: Aspergillus fumigatus, 210, YAG media
How it was run: as §2

C. parapsilosis = assay: Minimum inhibitory concentration, RPMI medium; assay type: cell-based; conditions: banded MIC grade; for MIC: Lodderomyces parapsilosis, RPMI media
How it was run: (§3)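 Growth was measured by OD at 485 nm after 24-48 hrs at 35° C in RPMI 1640 medium. Compound was serially diluted twofold in water, starting from a 5 mg/mL DMSO stock solution.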

C. tropicalis = assay: Minimum inhibitory concentration, RPMI medium; assay type: cell-based; conditions: banded MIC grade; for MIC: Candida tropicalis, RPMI media
How it was run: as §3

C. albicans = assay: Minimum inhibitory concentration, RPMI medium; assay type: cell-based; conditions: banded MIC grade; for MIC: Candida albicans, RPMI media
How it was run: as §3

[1] = read-out: MIC grade C. PARAPSILOSIS
[2] = read-out: MIC grade, C. PARAPSILOSIS, RPMI media
[3] = read-out: MIC grade C. ALBICANS
[4] = read-out: MIC grade, C. ALBICANS, RPMI media

SMILES	MIC grade, A. TERREUS 49, YAG media (A. terreus 49)	MIC grade, A. FUMIGATUS, YAG media (Aspergillus fumigatus)	MIC grade, A. TERREUS, YAG media (Aspergillus terreus)	MIC grade, A. FLAVUS, YAG media (Aspergillus flavus)	MIC grade, A. NIGER, YAG media (Aspergillus niger)	MIC grade, A. FUMIGATUS 210, YAG media (A. fumigatus 210)	MIC grade, C. PARAPSILOSIS, RPMI media (C. parapsilosis)	MIC grade, C. TROPICALIS, RPMI media (C. tropicalis)	MIC grade, C. ALBICANS, RPMI media (C. albicans)	MIC (A. terreus 49) [µg/mL]	MIC (Aspergillus fumigatus) [µg/mL]	MIC (Aspergillus terreus) [µg/mL]	MIC (Aspergillus flavus) [µg/mL]	MIC (Aspergillus niger) [µg/mL]	MIC (A. fumigatus 210) [µg/mL]	MIC (C. parapsilosis; [1]) [µg/mL]	MIC (C. parapsilosis; [2]) [µg/mL]	MIC (C. tropicalis) [µg/mL]	MIC (C. albicans; [3]) [µg/mL]	MIC (C. albicans; [4]) [µg/mL]
NC1=NN=C(CCOCCCc2ccccc2)CS1	4 (4: <0.2 mg/L)	4 (4: <0.2 mg/L)	4 (4: <0.2 mg/L)	4 (4: <0.2 mg/L)	4 (4: <0.2 mg/L)	4 (4: <0.2 mg/L)	4 (4: <1 mg/L)	3 (3: 1-5 mg/L)	4 (4: <1 mg/L)											
CCCCCOc1ccc(CCC2=NN=C(N)SC2)cc1	3 (3: 0.2-1 mg/L)	1 (1: ≥5 mg/L)	2 (2: 1-5 mg/L)	3 (3: 0.2-1 mg/L)	3 (3: 0.2-1 mg/L)	1 (1: ≥5 mg/L)	3 (3: 1-5 mg/L)	3 (3: 1-5 mg/L)	1 (1: ≥20 mg/L)											
NC1=NN=C(CCCCOCc2ccccc2)CS1	4 (4: <0.2 mg/L)	4 (4: <0.2 mg/L)	4 (4: <0.2 mg/L)	4 (4: <0.2 mg/L)	4 (4: <0.2 mg/L)	4 (4: <0.2 mg/L)	4 (4: <1 mg/L)	4 (4: <1 mg/L)	4 (4: <1 mg/L)											
CCc1cccc(OCCCCCC2=NN=C(N)SC2)c1	4 (4: <0.2 mg/L)	4 (4: <0.2 mg/L)	4 (4: <0.2 mg/L)	4 (4: <0.2 mg/L)	4 (4: <0.2 mg/L)	4 (4: <0.2 mg/L)	4 (4: <1 mg/L)	4 (4: <1 mg/L)	4 (4: <1 mg/L)											
CCCCOC(=O)c1ccc(C2=NN=C(N)SC2)cc1	2 (2: 1-5 mg/L)	3 (3: 0.2-1 mg/L)	2 (2: 1-5 mg/L)	3 (3: 0.2-1 mg/L)	3 (3: 0.2-1 mg/L)	3 (3: 0.2-1 mg/L)	1 (1: ≥20 mg/L)	1 (1: ≥20 mg/L)	1 (1: ≥20 mg/L)											
CN1N=C(N)SC=C1c1ccc(C#N)cc1 [4-(2-amino-4-methyl-1,3,4-thiadiazin-5-yl)benzonitrile]										< 0.2	0.2 to 1 (≈ 0.868 to 4.34 µM)	< 0.2	< 0.2	< 0.2	< 0.2	1 to 5 (≈ 4.34 to 21.7 µM)	1 to 5 (≈ 4.34 to 21.7 µM)	5 to 20 (≈ 21.7 to 86.8 µM)	< 1	1 to 5 (≈ 4.34 to 21.7 µM)
COCCCCCN1N=C(N)SC=C1C [4-(5-methoxypentyl)-5-methyl-1,3,4-thiadiazin-2-amine]										1 to 5 (≈ 4.36 to 21.8 µM)	≥ 5	1 to 5 (≈ 4.36 to 21.8 µM)	1 to 5 (≈ 4.36 to 21.8 µM)	≥ 5	1 to 5 (≈ 4.36 to 21.8 µM)	≥ 20	5 to 20 (≈ 21.8 to 87.2 µM)	≥ 20	≥ 20	≥ 20
